Measured values taken from patent US20260365628A1, “SUBSTITUTED 3,4-DIHYDROQUINOLINONE INHIBITORS OF TSHR” (Septerna, Inc., priority 2022, published 2026).

molecular target: T1, hTSHR (Homo sapiens, UniProt P16473); experiment: hTSHR TR-FRET cAMP Assay (inhibition of M22-stimulated cAMP production); format: cell-based; settings: Expi293F Inducible cells stably expressing hTSHR; cAMP HTRF; stimulated with EC80 of anti-TSHR antibody M22; 15 min compound preincubation, 30 min at 37° C.; read-out: Activity (IC50 bins)
T1 construct: expressed in transfected cells
T1 sequence (P16473 21-764): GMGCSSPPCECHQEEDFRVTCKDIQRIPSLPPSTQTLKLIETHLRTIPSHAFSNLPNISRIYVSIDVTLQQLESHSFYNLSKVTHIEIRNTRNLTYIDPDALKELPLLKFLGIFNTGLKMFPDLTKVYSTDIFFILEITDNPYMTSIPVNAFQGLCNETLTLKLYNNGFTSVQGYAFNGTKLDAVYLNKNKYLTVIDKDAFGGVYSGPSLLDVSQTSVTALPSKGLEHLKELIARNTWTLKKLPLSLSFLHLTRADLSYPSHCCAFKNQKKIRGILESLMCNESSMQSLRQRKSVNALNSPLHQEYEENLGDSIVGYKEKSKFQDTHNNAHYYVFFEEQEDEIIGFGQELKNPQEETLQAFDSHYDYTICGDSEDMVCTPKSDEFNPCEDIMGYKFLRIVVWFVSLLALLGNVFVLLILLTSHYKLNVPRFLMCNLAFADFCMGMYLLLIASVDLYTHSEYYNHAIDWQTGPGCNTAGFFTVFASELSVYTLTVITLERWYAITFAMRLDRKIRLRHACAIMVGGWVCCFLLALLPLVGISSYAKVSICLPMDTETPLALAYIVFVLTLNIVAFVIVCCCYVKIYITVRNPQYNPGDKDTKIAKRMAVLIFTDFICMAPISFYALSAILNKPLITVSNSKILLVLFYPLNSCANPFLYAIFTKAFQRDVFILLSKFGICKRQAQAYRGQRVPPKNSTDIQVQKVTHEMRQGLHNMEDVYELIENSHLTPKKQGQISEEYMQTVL
Summary of the method: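 Readout was a cAMP HTRF ratio of 655/620 nm after lysis, scaled between the EC80 M22 signal (0% inhibition) and no-agonist vehicle (100%). Frozen induced Expi293F-hTSHR cells saw test compounds (0.5% DMSO) for 15 min at 37 °C before 30 min of M22 stimulation at EC80.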

| IC50 [nM] | SMILES |
| --- | --- |
| > 1000 | C[C@@H](c1cc(OC(F)(F)F)ccn1)n1c(=O)cnc2cc(NC(=O)NC(C)(C)C)ccc21 [Example 129, (S)-1-(tert-butyl)-3-(2-oxo-1-(1-(4-(trifluoromethoxy)pyri-din-2-yl)ethyl)-1,2-dihydroquinoxalin-6-yl)urea] |
| 100 to 1000 | C[C@@H](c1cc(Cl)ccc1Cl)n1c(=O)cnc2cc(NC(=O)NC(C)(C)C)ccc21 [Example 130, (S)-1-(tert-butyl)-3-(1-(1-(2,5-dichlorophenyl)ethyl)-2-oxo-1,2-dihydroquinoxalin-6-yl)urea] |
| < 100 | C[C@@H](c1cccc(Cl)c1)n1c(=O)cnc2cc(NC(=O)NC(C)(C)C)ccc21 [Example 131, (S)-1-(tert-butyl)-3-(1-(1-(3-chlorophenyl)ethyl)-2-oxo-1,2-dihydroquinoxalin-6-yl)urea] |
| 100 to 1000 | Cc1cccc([C@H](C)n2c(=O)cnc3cc(NC(=O)NC(C)(C)C)ccc32)c1 [Example 132, (S)-1-(tert-butyl)-3-(2-oxo-1-(1-(m-tolyl)ethyl)-1,2-dihydroquinoxalin-6-yl)urea] |
| 100 to 1000 | C[C@@H](c1ccc(Cl)c(Cl)c1)n1c(=O)cnc2cc(NC(=O)NC(C)(C)C)ccc21 [Example 133, (S)-1-(tert-butyl)-3-(1-(1-(3,4-dichlorophenyl)ethyl)-2-oxo-1,2-dihydroquinoxalin-6-yl)urea] |
| 100 to 1000 | C[C@@H](c1cccc(C2CC2)c1)n1c(=O)cnc2cc(NC(=O)NC(C)(C)C)ccc21 [Example 134, (S)-1-(tert-butyl)-3-(1-(1-(3-cyclopropylphenyl)eth-yl)-2-oxo-1,2-dihydroquinoxalin-6-yl)urea] |
| 100 to 1000 | C[C@@H](c1cccc(C2CCC2)c1)n1c(=O)cnc2cc(NC(=O)NC(C)(C)C)ccc21 [Example 135, (S)-1-(tert-butyl)-3-(1-(1-(3-cyclo-butylphenyl)ethyl)-2-oxo-1,2-dihydroquinoxalin-6-yl)urea] |
| 100 to 1000 | CC(C)c1cccc([C@H](C)n2c(=O)cnc3cc(NC(=O)NC(C)(C)C)ccc32)c1 [Example 136, (S)-1-(tert-butyl)-3-(1-(1-(3-iso-propylphenyl)ethyl)-2-oxo-1,2-dihydroquinoxalin-6-yl)urea] |
| 100 to 1000 | CC(C)Oc1cccc([C@H](C)n2c(=O)cnc3cc(NC(=O)NC(C)(C)C)ccc32)c1 [Example 137, (S)-1-(tert-butyl)-3-(1-(1-(3-isopropoxyphenyl)eth-yl)-2-oxo-1,2-dihydroquinoxalin-6-yl)urea] |
| 100 to 1000 | C[C@@H](c1cccc(C(C)(C)C)c1)n1c(=O)cnc2cc(NC(=O)NC(C)(C)C)ccc21 [Example 138, (S)-1-(tert-butyl)-3-(1-(1-(3-(tert-butyl)phenyl)ethyl)-2-oxo-1,2-dihydroquinoxalin-6-yl)urea] |
| 100 to 1000 | C[C@@H](c1cc(Cl)ccc1F)n1c(=O)cnc2cc(NC(=O)NC(C)(C)C)ccc21 [Example 139, (S)-1-(tert-butyl)-3-(1-(1-(5-chloro-2-fluorophenyl)ethyl)-2-oxo-1,2-dihydroquinoxalin-6-yl)urea] |
| 100 to 1000 | C[C@@H](c1c(F)cccc1F)n1c(=O)cnc2cc(NC(=O)NC(C)(C)C)ccc21 [Example 140, (S)-1-(tert-butyl)-3-(1-(1-(2,6-difluorophenyl)ethyl)-2-oxo-1,2-dihydroquinoxalin-6-yl)urea] |
| 100 to 1000 | Cc1ccc(Cl)cc1[C@H](C)n1c(=O)cnc2cc(NC(=O)NC(C)(C)C)ccc21 [Example 141, (S)-1-(tert-butyl)-3-(1-(1-(5-chloro-2-methylphenyl)ethyl)-2-oxo-1,2-dihydroquinoxalin-6-yl)urea] |
| 100 to 1000 | C[C@@H](c1cccc(Cl)c1Cl)n1c(=O)cnc2cc(NC(=O)NC(C)(C)C)ccc21 [Example 142, (S)-1-(tert-butyl)-3-(1-(1-(2,3-dichlorophenyl)ethyl)-2-oxo-1,2-dihydroquinoxalin-6-yl)urea] |
| 100 to 1000 | C[C@@H](c1cccc(C2CC2)n1)n1c(=O)cnc2cc(NC(=O)NC(C)(C)C)ccc21 [Example 143, (S)-1-(tert-butyl)-3-(1-(1-(6-cyclopropylpyridin-2-yl)ethyl)-2-oxo-1,2-dihydroquinoxalin-6-yl)urea] |
| 100 to 1000 | COc1cccc([C@H](C)n2c(=O)cnc3cc(NC(=O)NC(C)(C)C)ccc32)n1 [Example 144, (S)-1-(tert-butyl)-3-(1-(1-(6-methoxypyridin-2-yl)ethyl)-2-oxo-1,2-dihydroquinoxalin-6-yl)urea] |
| 100 to 1000 | C[C@@H](c1cccc(N(C)C)n1)n1c(=O)cnc2cc(NC(=O)NC(C)(C)C)ccc21 [Example 145, (S)-1-(tert-butyl)-3-(1-(1-(6-(dimethyl-amino)pyridin-2-yl)ethyl)-2-oxo-1,2-dihydroquinoxalin-6-yl)urea] |

| IC50 [nM] | SMILES |
| --- | --- |
| > 1000 | CC(O)c1cccc([C@H](C)n2c(=O)cnc3cc(NC(=O)NC(C)(C)C)ccc32)c1 (stereo partly drawn) [Example 146, 1-(tert-butyl)-3-(1-((1S)-1-(3-(1-hydroxy-ethyl)phenyl)eth-yl)-2-oxo-1,2-dihydroquinoxalin-6-yl)urea] |
| 100 to 1000 | C[C@@H](c1cc(F)ccc1Cl)n1c(=O)cnc2cc(NC(=O)NC(C)(C)C)ccc21 [Example 147, (S)-1-(tert-butyl)-3-(1-(1-(2-chloro-5-fluorophenyl)ethyl)-2-oxo-1,2-dihydroquinoxalin-6-yl)urea] |
| 100 to 1000 | C[C@@H](c1cc(F)ccc1F)n1c(=O)cnc2cc(NC(=O)NC(C)(C)C)ccc21 [Example 148, (S)-1-(tert-butyl)-3-(1-(1-(2,5-difluorophenyl)ethyl)-2-oxo-1,2-dihydroquinoxalin-6-yl)urea] |
| 100 to 1000 | C[C@@H](c1cc(Cl)c(F)cc1F)n1c(=O)cnc2cc(NC(=O)NC(C)(C)C)ccc21 [Example 149, (S)-1-(tert-butyl)-3-(1-(1-(5-chloro-2,4-difluorophenyl)ethyl)-2-oxo-1,2-dihydroquinoxalin-6-yl)urea] |
| 100 to 1000 | C[C@@H](c1cccc(CC(F)(F)F)n1)n1c(=O)cnc2cc(NC(=O)NC(C)(C)C)ccc21 [Example 150, (S)-1-(tert-butyl)-3-(2-oxo-1-(1-(6-(2,2,2-trifluoroethyl)pyridin-2-yl)ethyl)-1,2-dihydroquinoxalin-6-yl)urea] |
| 100 to 1000 | C[C@@H](c1cc(OC(F)(F)F)c(F)cc1F)n1c(=O)cnc2cc(NC(=O)NC(C)(C)C)ccc21 [Example 151, (S)-1-(tert-butyl)-3-(1-(1-(2,4-difluoro-5-(trifluoromethoxy)phe-nyl)ethyl)-2-oxo-1,2-dihydroquinoxalin-6-yl)urea] |
| > 1000 | C[C@@H](c1ccc2c(c1)OCCC2)n1c(=O)cnc2cc(NC(=O)NC(C)(C)C)ccc21 [Example 152, (S)-1-(tert-butyl)-3-(1-(1-(chroman-7-yl)ethyl)-2-oxo-1,2-dihydroquinoxalin-6-yl)urea] |
| 100 to 1000 | C[C@@H](c1cccc([C@@H](O)C(F)(F)F)n1)n1c(=O)cnc2cc(NC(=O)NC(C)(C)C)ccc21 [Example 153] |
| 100 to 1000 | C[C@@H](c1cccc([C@@H](O)C(F)(F)F)c1)n1c(=O)cnc2cc(NC(=O)NC(C)(C)C)ccc21 [Example 155, 1-(tert-butyl)-3-(2-oxo-1-((S)-1-(3-((S)-2,2,2-trifluoro-1-hydroxyethyl)phe-nyl)ethyl)-1,2-dihydroquinoxalin-6-yl)urea] |
| 100 to 1000 | C[C@@H](c1cccc([C@H](O)C(F)(F)F)c1)n1c(=O)cnc2cc(NC(=O)NC(C)(C)C)ccc21 [Example 156, 1-(tert-butyl)-3-(2-oxo-1-((S)-1-(3-((R)-2,2,2-trifluoro-1-hydroxyethyl)phe-nyl)ethyl)-1,2-dihydroquinoxalin-6-yl)urea] |
| < 100 | Cc1cccc(CN2C(=O)[C@@H](C)Oc3cc(NC(=O)NC(C)(C)C)ccc32)c1 [Example 157, 3-tert-butyl-1-[(2R)-2-methyl-4-[(3-methylphenyl)methyl]-3-oxo-2H-1,4-benzoxazin-7-yl]urea] |
| < 100 | C[C@H]1Oc2cc(NC(=O)NC(C)(C)C)ccc2N(Cc2cccc(C(F)F)c2)C1=O [Example 158, (R)-1-(tert-butyl)-3-(4-(3-(difluoro-methyl)benzyl)-2-methyl-3-oxo-3,4-dihydro-2H-benzo [b][1,4]oxazin-7-yl)urea] |
| < 100 | C[C@H]1Oc2cc(NC(=O)NC(C)(C)C)ccc2N(Cc2cccc(OC(F)(F)F)c2)C1=O [Example 159, (R)-1-(tert-butyl)-3-(2-methyl-3-oxo-4-(3-(trifluoro-methoxy)benzyl)-3,4-dihydro-2H-benzo [b][1,4]oxazin-7-yl)urea] |
| < 100 | C[C@H]1Oc2cc(NC(=O)NC(C)(C)C)ccc2N(Cc2cccc(OC(F)F)c2)C1=O [Example 160, (R)-1-(tert-butyl)-3-(4-(3-(difluoro-methoxy)benzyl)-2-methyl-3-oxo-3,4-dihydro-2H-benzo [b][1,4]oxazin-7-yl)urea] |
| < 100 | C[C@H]1Oc2cc(NC(=O)NC(C)(C)C)ccc2N(Cc2cccc(C(F)(F)F)n2)C1=O [Example 161, (R)-1-(tert-butyl)-3-(2-methyl-3-oxo-4-((6-(trifluoro-methyl)pyridin-2-yl)methyl)-3,4-dihydro-2H-benzo [b][1,4]oxazin-7-yl)urea] |
| 100 to 1000 | C[C@H]1Oc2cc(NC(=O)NC(C)(C)C)ccc2N(Cc2cc(C(F)(F)F)ccn2)C1=O [Example 162, (R)-1-(tert-butyl)-3-(2-methyl-3-oxo-4-((4-(trifluoro-methyl)pyridin-2-yl)methyl)-3,4-dihydro-2H-benzo [b][1,4]oxazin-7-yl)urea] |
| 100 to 1000 | C[C@H]1Oc2cc(NC(=O)NC(C)(C)C)ccc2N(Cc2ccnc(C(F)(F)F)c2)C1=O [Example 163, (R)-1-(tert-butyl)-3-(2-methyl-3-oxo-4-((2-(trifluoro-methyl)pyridin-4-yl)methyl)-3,4-dihydro-2H-benzo [b][1,4]oxazin-7-yl)urea] |
